Here are results for three molecules from the NIST ThermoML archive (doi:10.1016/j.fluid.2014.05.018).

The structures appear in SMILES notation. “And” between values parts separate entries of the source, which are not always exact repeats. Equal entries are not always repeated. Numbers after ± are expanded uncertainties.

The conditions of the data set: Liquid, Ebulliometric method (Recirculating still).

In general, vapor or sublimation pressure refers to the pressure of vapour in equilibrium with the condensed phase. Regarding `CC(C)C` [2-methylpropane], the “vapor or sublimation pressure” value is reported as 536 ± 7 kPa (313.2 K); 880 ± 8 kPa (333.2 K); 1363 ± 10 kPa (353.2 K); 2014 ± 12 kPa (373.2 K); 3377 ± 16 kPa (403.2 K).

For `CCCC` [butane], the “vapor or sublimation pressure” value reads like this: (313.2 K) 379 ± 7 kPa; (333.2 K) 645 ± 7 kPa; (353.2 K) 1013 ± 8 kPa; (373.2 K) 1525 ± 11 kPa; (403.2 K) 2660 ± 14 kPa.

Turning to `CCO` [ethanol], the “vapor or sublimation pressure” value reads like this: (313.2 K) 18 ± 6 kPa; (333.2 K) 50 ± 6 kPa and 47 ± 6 kPa; (353.2 K) 110 ± 6 kPa and 108 ± 6 kPa; (373.2 K) 225 ± 6 kPa and 224 ± 6 kPa; (403.2 K) 585 ± 7 kPa and 572 ± 7 kPa.
